Our source for the IC50 values is patent US11524966B1 (Valo Early Discovery, Inc., priority 2017, dated 2022).

As usually defined, the IC50 is the concentration that inhibits the measured activity by half.

For this experiment, the target named is T1, USP28 (His-tagged USP28-FL-mammalian) (Homo sapiens, UniProt Q96RU2).
T1 construct: Expression of USP28 (1-1077)-TEV-6*His (pTT5 vector); made in house; host or cells: Expi293f cells (pTT5 vector)
T1 sequence (Q96RU2 1-1077): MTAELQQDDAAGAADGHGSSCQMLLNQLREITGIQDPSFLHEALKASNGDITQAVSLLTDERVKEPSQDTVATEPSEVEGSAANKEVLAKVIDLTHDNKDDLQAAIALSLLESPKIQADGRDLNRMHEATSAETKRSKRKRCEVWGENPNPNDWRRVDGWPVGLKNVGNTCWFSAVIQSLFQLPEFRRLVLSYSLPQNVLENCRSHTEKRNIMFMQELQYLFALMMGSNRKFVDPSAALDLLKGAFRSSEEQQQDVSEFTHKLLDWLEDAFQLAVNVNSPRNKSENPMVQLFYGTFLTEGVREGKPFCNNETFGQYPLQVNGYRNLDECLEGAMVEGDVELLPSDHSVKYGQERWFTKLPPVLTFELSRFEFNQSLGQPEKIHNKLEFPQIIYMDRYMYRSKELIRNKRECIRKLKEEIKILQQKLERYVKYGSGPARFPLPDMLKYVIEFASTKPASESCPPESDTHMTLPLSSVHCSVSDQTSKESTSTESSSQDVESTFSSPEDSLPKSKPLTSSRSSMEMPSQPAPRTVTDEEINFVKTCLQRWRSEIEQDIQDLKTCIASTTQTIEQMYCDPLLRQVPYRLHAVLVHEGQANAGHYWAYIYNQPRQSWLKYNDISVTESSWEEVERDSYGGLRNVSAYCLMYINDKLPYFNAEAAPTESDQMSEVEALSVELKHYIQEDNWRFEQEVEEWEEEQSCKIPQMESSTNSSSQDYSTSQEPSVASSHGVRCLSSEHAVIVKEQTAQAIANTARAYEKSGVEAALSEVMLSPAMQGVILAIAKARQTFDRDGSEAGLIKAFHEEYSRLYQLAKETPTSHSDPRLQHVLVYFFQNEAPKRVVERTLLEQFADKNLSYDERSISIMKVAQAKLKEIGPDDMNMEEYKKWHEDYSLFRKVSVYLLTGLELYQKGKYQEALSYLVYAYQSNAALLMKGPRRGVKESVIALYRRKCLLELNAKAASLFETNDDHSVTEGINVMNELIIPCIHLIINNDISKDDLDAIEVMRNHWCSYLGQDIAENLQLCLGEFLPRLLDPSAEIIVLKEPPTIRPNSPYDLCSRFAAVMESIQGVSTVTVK
The experiment in a line: Ubiquitin-Rhodamine 110 Assay for USP28 Activity, Example A-1(a). It counts as biochemical. Conditions: Ubiquitin-Rhodamine 110 assay, Example A-1(a); read-out: USP28 A-1(a) IC50 range. Put shortly: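 IC50 from 4-parameter logistic fit of percent inhibition versus no-enzyme and DMSO controls; compounds 25 μM to 1.3 nM, 3-fold. Ub-Rh110 cleavage (25 nM, below Km) by […] mammalian-expressed USP28-FL-His ran 45 min at room temperature, stopped with 10 mM citric acid, read ex 485/em 535.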
Turning to `Cc1ccc2c(N)c(C(=O)N[C@H]3CCc4nc(N5C[C@H](N)[C@H](OC(C)C)C5)ccc4C3)sc2n1` [Example 321, 3-amino-N-[(6S)-2-[(3S,4R)-3-amino-4-(propan-2-yloxy)pyrrolidin-1-yl]-5,6,7,8-tetrahydroquinolin-6-yl]-6-methylthieno[2,3-b]pyridine-2-carboxamide], the IC50 was in the range of 0.2 to 2 µM.

For the compound `COC[C@@]1(C)CN(c2ccc3c(n2)CC[C@H](NC(=O)c2sc4nc(C)ccc4c2N)C3)CC1N` (stereo in doubt) [Example 343, 3-amino-N-[(6S)-2-[(3S,4S)-4-amino-3-(methoxymethyl)-3-methylpyrrolidin-1-yl]-5,6,7,8-tetrahydroquinolin-6-yl]-6-methylthieno[2,3-b]pyridine-2-carboxamide], the IC50 fell in the range of 0.05 to 0.2 µM.

With `Cc1ccc2c(N)c(C(=O)N[C@H]3COc4cc(N5C[C@H](C(F)F)[C@@H](N)C5)ccc4C3)sc2n1` [Example 294, 3-amino-N-[(3R)-7-[(3R,4S)-3-amino-4-(difluoromethyl)pyrrolidin-1-yl]-3,4-dihydro-2H-1-benzopyran-3-yl]-6-methylthieno[2,3-b]pyridine-2-carboxamide], the IC50 lay in the range of 0.001 to 0.05 µM.

With `COC[C@H]1CN(c2ccc3c(n2)CC[C@H](NC(=O)c2sc4nc(C)cc(C)c4c2N)C3)C[C@H]1N` [Example 297, 3-amino-N-[(6S)-2-[(3S,4S)-3-amino-4-(methoxymethyl)pyrrolidin-1-yl]-5,6,7,8-tetrahydroquinolin-6-yl]-4,6-dimethylthieno[2,3-b]pyridine-2-carboxamide], the IC50 was in the range of 0.001 to 0.05 µM.

Consider `CO[C@@]1(C)CN(c2ccc3c(n2)CC[C@H](NC(=O)c2sc4nc(C)cnc4c2N)C3)C[C@@H]1N` [Example 279, 7-amino-N-[(6S)-2-[(3S,4S)-4-amino-3-methoxy-3-methylpyrrolidin-1-yl]-5,6,7,8-tetrahydroquinolin-6-yl]-3-methylthieno[2,3-b]pyrazine-6-carboxamide], for which the IC50 lay in the range of 0.2 to 2 µM.

Take `CO[C@@]12CNC[C@@H]1CN(c1ccc3c(c1)OC[C@H](NC(=O)c1sc4nc(C)ccc4c1N)C3)C2` [Example 292, N-[(3R)-7-[(3aR,6aR)-3a-methoxy-octahydropyrrolo[3,4-c]pyrrol-2-yl]-3,4-dihydro-2H-1-benzopyran-3-yl]-3-amino-6-methylthieno[2,3-b]pyridine-2-carboxamide]: the IC50 lay in the range of 0.001 to 0.05 µM.

Consider `Cc1ccc2c(N)c(C(=O)N[C@H]3COc4nc(N5C[C@H](OC(C)C)[C@@H](N)C5)ccc4C3)sc2n1` [Example 287, 3-amino-N-[(3R)-7-[(3S,4S)-3-amino-4-(propan-2-yloxy)pyrrolidin-1-yl]-2H,3H,4H-pyrano[2,3-b]pyridin-3-yl]-6-methylthieno[2,3-b]pyridine-2-carboxamide], for which the IC50 was 0.2 to 2 µM.

Take `CN[C@H]1CN(c2ccc3c(n2)CC[C@H](NC(=O)c2sc4nc(C)ccc4c2N)C3)C[C@@H]1OC` [Example 311, 3-amino-N-[(6S)-2-[(3S,4S)-3-methoxy-4-(methylamino)pyrrolidin-1-yl]-5,6,7,8-tetrahydroquinolin-6-yl]-6-methylthieno[2,3-b]pyridine-2-carboxamide]: the IC50 lay within 0.05 to 0.2 µM.

Consider `CO[C@H]1[C@H](N)CN(c2ccc3c(c2)OC[C@H](NC(=O)c2sc4nc(C)ccc4c2N)C3)[C@@H]1C` [Example 284, 3-amino-N-[(3R)-7-[(2R,3S,4R)-4-amino-3-methoxy-2-methylpyrrolidin-1-yl]-3,4-dihydro-2H-1-benzopyran-3-yl]-6-methylthieno[2,3-b]pyridine-2-carboxamide], for which the IC50 was 0.001 to 0.05 µM.

On to `CO[C@]1(C)CN(c2ccc3c(n2)OC[C@H](NC(=O)c2sc4nc(C)ccc4c2N)C3)C[C@H]1N` [Example 326, 3-amino-N-[(3R)-7-[(3R,4R)-4-amino-3-methoxy-3-methylpyrrolidin-1-yl]-2H,3H,4H-pyrano[2,3-b]pyridin-3-yl]-6-methylthieno[2,3-b]pyridine-2-carboxamide], for which the IC50 lay in the range of 0.05 to 0.2 µM.

`Cc1ccc2c(N)c(C(=O)N[C@H]3COc4cc(N5CC6(C5)OCC[C@H]6N)ccc4C3)sc2n1` [Example 337, 3-amino-N-[(3R)-7-[(8R)-8-amino-5-oxa-2-azaspiro[3.4]octan-2-yl]-3,4-dihydro-2H-1-benzopyran-3-yl]-6-methylthieno[2,3-b]pyridine-2-carboxamide]: the half-maximal inhibitory concentration (IC50) lay within 0.001 to 0.05 µM.

Consider `CN[C@H]1CN(c2ccc3c(n2)CC[C@H](NC(=O)c2sc4nc(C)ccc4c2N)C3)C[C@@]1(C)O` [Example 331, 3-amino-N-[(6S)-2-[(3R,4S)-3-hydroxy-3-methyl-4-(methylamino)pyrrolidin-1-yl]-5,6,7,8-tetrahydroquinolin-6-yl]-6-methylthieno[2,3-b]pyridine-2-carboxamide], for which the IC50 is 0.05 to 0.2 µM.

For the compound `Cc1ccc2c(N)c(C(=O)N[C@H]3CCc4nc(N5C[C@H](OC6CCC6)[C@@H](N)C5)ccc4C3)sc2n1` [Example 285, 3-amino-N-[(6S)-2-[(3S,4S)-3-amino-4-cyclobutoxypyrrolidin-1-yl]-5,6,7,8-tetrahydroquinolin-6-yl]-6-methylthieno[2,3-b]pyridine-2-carboxamide], the IC50 lay in the range of 0.05 to 0.2 µM.

On to `COC[C@@H]1CN(c2ccc3c(n2)CC[C@H](NC(=O)c2sc4nc(C)cc(C)c4c2N)C3)C[C@@H]1N` [Example 296, 3-amino-N-[(6S)-2-[(3R,4R)-3-amino-4-(methoxymethyl)pyrrolidin-1-yl]-5,6,7,8-tetrahydroquinolin-6-yl]-4,6-dimethylthieno[2,3-b]pyridine-2-carboxamide-], for which the IC50 lay in the range of 0.05 to 0.2 µM.

Regarding `COC[C@@H]1C[C@H](N)CN1c1ccc2c(c1)OC[C@H](NC(=O)c1sc3nc(C)ccc3c1N)C2` [Example 263, 3-amino-N-[(3R)-7-[(2S,4S)-4-amino-2-(methoxymethyl)pyrrolidin-1-yl]-3,4-dihydro-2H-1-benzopyran-3-yl]-6-methylthieno[2,3-b]pyridine-2-carboxamide], the IC50 was in the range of 0.001 to 0.05 µM.

`COC[C@H]1CN(c2ccc3c(n2)CC[C@H](NC(=O)c2sc4nc(C)ccc4c2N)C3)C[C@@H]1N` [Example 327, 3-amino-N-[(6S)-2-[(3R,4S)-3-amino-4-(methoxymethyl)pyrrolidin-1-yl]-5,6,7,8-tetrahydroquinolin-6-yl]-6-methylthieno[2,3-b]pyridine-2-carboxamide]: the IC50 fell in the range of 0.05 to 0.2 µM.

As for `CO[C@]12CNC[C@H]1CN(c1ccc3c(c1)OC[C@H](NC(=O)c1sc4nc(C)ccc4c1N)C3)C2` [Example 291, N-[(3R)-7-[(3aS,6aS)-3a-methoxy-octahydropyrrolo[3,4-c]pyrrol-2-yl]-3,4-dihydro-2H-1-benzopyran-3-yl]-3-amino-6-methylthieno[2,3-b]pyridine-2-carboxamide], the IC50 lay in the range of 0.001 to 0.05 µM.

In the case of `CO[C@@H]1[C@@H](N)CN(c2ccc3c(c2)OC[C@H](NC(=O)c2sc4nc(C)ccc4c2N)C3)[C@H]1C` [Example 283, 3-amino-N-[(3R)-7-[(2S,3R,4S)-4-amino-3-methoxy-2-methylpyrrolidin-1-yl]-3,4-dihydro-2H-1-benzopyran-3-yl]-6-methylthieno[2,3-b]pyridine-2-carboxamide], the 50% inhibitory concentration (IC50) is 0.001 to 0.05 µM.

`COC[C@H]1C[C@@H](N)CN1c1ccc2c(c1)OC[C@H](NC(=O)c1sc3nc(C)ccc3c1N)C2` [Example 262, 3-amino-N-[(3R)-7-[(2R,4R)-4-amino-2-(methoxymethyl)pyrrolidin-1-yl]-3,4-dihydro-2H-1-benzopyran-3-yl]-6-methylthieno[2,3-b]pyridine-2-carboxamide]: the IC50 was 0.001 to 0.05 µM.

As for `N#Cc1c(N2CC3CCC(C2)N3)cc2c(c1F)C[C@@H](NC(=O)c1cnc3c(c1)[C@H]1C[C@H]1CN3)CO2` [Example 265, (6aR,7aS)-N-[(3R)-6-cyano-7-{3,8-diazabicyclo[3.2.1]octan-3-yl}-5-fluoro-3,4-dihydro-2H-1-benzopyran-3-yl]-5H,6H,6aH,7H,7aH-cyclopropa[c]1,8-naphthyridine-2-carboxamide], the IC50 was 0.05 to 0.2 µM.

On to `CO[C@]1(C)CN(c2ccc3c(c2)OC[C@H](NC(=O)c2sc4nc(C)ccc4c2N)C3)C[C@H]1N` [Example 282, 3-amino-N-[(3R)-7-[(3R,4R)-4-amino-3-methoxy-3-methylpyrrolidin-1-yl]-3,4-dihydro-2H-1-benzopyran-3-yl]-6-methylthieno[2,3-b]pyridine-2-carboxamide], for which the IC50 lay within 0.001 to 0.05 µM.
